Measured values published in patent US9012651B2, “TRPV3 modulators” (AbbVie Inc., priority 2011, dated 2015).

target: human TRPV3 receptors (Homo sapiens (Human), UniProt Q8NET8); assay: Calcium flux assay (FLIPR TETRA), inhibition of the 2-APB response; assay type: cell-based; settings: recombinant HEK293 cells stably expressing TRPV3, Calcium-4 dye, 2-APB at its EC80
Protocol: (i) In Vitro Methods-Calcium Flux Assays:
Experiments were conducted using the FLIPR^TETRA®. On the day prior to the experiment, recombinant HEK293 cells that stably express human and mouse TRPV3 were removed from tissue culture flasks and plated in growth medium at 20,000 cells/well into black-walled clear-bottom 384-well Biocoat™ poly-D-lysine assay plates (BD Biosciences, Bedford, Mass.) using a Multidrop® dispenser (ThermoScientific, Waltham, Mass.). […] Cells were incubated for 90-120 minutes in the dark. Compounds were dissolved in DMSO to prepare a 10 mM stock solution. The intensity of the fluorescence was captured and digitally transferred to an interfaced PC. The peak increase in fluorescence over baseline (relative fluorescence units) was calculated and expressed as the percentage of the maximal 2-APB (2-aminoethoxyldiphenyl borate) response (in the absence of compound).

Chain of human TRPV3 receptors (Q8NET8 whole entry): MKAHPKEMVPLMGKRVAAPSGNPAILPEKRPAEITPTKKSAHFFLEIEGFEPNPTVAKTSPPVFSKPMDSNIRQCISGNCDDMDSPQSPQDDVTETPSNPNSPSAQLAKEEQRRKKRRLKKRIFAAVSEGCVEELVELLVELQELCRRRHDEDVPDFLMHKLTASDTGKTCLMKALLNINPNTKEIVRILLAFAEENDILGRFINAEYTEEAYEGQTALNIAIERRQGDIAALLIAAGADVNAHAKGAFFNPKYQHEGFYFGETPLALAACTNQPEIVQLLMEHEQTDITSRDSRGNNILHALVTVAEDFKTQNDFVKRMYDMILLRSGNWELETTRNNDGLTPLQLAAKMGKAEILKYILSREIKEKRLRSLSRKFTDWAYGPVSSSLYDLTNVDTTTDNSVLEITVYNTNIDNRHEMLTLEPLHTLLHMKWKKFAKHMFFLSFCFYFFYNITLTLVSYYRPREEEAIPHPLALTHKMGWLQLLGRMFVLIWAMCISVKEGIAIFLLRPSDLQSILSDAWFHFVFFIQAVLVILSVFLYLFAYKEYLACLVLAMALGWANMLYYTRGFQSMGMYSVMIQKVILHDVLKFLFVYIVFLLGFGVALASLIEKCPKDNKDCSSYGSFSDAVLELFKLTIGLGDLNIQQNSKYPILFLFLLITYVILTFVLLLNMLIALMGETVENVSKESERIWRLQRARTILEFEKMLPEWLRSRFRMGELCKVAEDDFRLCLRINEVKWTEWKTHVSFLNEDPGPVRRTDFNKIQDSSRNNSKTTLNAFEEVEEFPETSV

Point of comparison: `O[C@H]1CCCC[C@@H]1NCc1nc(-c2ccc(C(F)(F)F)nc2)ccc1F` [Example 122, (1S,2S)-2-({[5-fluoro-6′-(trifluoromethyl)-2,3′-bipyridin-6-yl]methyl}amino)cyclohexanol], IC50 3.94 µM. Against it:
- CC(C)[C@H](CO)NCc1nc(-c2cccc(S(=O)(=O)N3CCCCC3)c2)ccc1F [Example 48, (2R)-2-[({3-fluoro-6-[3-(piperidin-1-ylsulfonyl)phenyl]pyridin-2-yl}methyl)amino]-3-methylbutan-1-ol] — 12-fold lower, 0.33 µM
- CC(C)[C@H](CO)NCc1cccc(OC(C)(C)C)n1 [Example 26] — within 1.5-fold, 4.06 µM
- CC(C)[C@H](CO)NCc1cccc(-c2cccc([Si](C)(C)C)c2)n1 [Example 226, (2R)-3-methyl-2-[({6-[3-(trimethylsilyl)phenyl]pyridin-2-yl}methyl)amino]butan-1-ol] — 6.6-fold lower, 0.6 µM
- OC[C@@H]1[C@H]2CC[C@H](C2)[C@@H]1NCc1ccnc(-c2ccc(C(F)(F)F)cc2)n1 [Example 169, {(1S,2R,3S,4R)-3-[({2-[4-(trifluoromethyl)phenyl]pyrimidin-4-yl}methyl)amino]bicyclo[2.2.1]hept-2-yl]methanol] — higher, > 20 µM
- CC(C)[C@H](CO)NCc1ccnc(-c2ccc(C(F)(F)F)cn2)n1 [Example 192, (2R)-3-methyl-2-[({2-[5-(trifluoromethyl)pyridin-2-yl]pyrimidin-4-yl}methyl)amino]butan-1-ol] — higher, > 20 µM
- CC(C)[C@@H](CO)NCc1nc(-c2ccc(C(F)(F)F)cc2)ccc1F [Example 30, (2S)-2-[({3-fluoro-6-[4-(trifluoromethyl)phenyl]pyridin-2-yl}methyl)amino]-3-methylbutan-1-ol] — higher, > 20 µM
- CC1CCN(C(=O)c2cccc(-c3ccc(F)c(CN[C@@H](CO)C(C)C)n3)c2)CC1 [Example 46, {3-[5-fluoro-6-({[(2R)-1-hydroxy-3-methylbutan-2-yl]amino}methyl)pyridin-2-yl]phenyl}(4-methylpiperidin-1-yl)methanone] — 2-fold lower, 2.02 µM
- CC[C@H](CO)NCc1nc(-c2ccc(C(F)(F)F)cc2)ccc1F [Example 77, (2R)-2-[({3-fluoro-6-[4-(trifluoromethyl)phenyl]pyridin-2-yl}methyl)amino]butan-1-ol] — 7.3-fold lower, 0.54 µM
- C[C@H](CO)NCc1nc(-c2ccc(C(F)(F)F)cc2)ccc1F [Example 82, (2R)-2-[({3-fluoro-6-[4-(trifluoromethyl)phenyl]pyridin-2-yl}methyl)amino]propan-1-ol] — 2.4-fold lower, 1.64 µM
- CC(C)[C@H](CO)NCc1nc(N2CCC(C(F)(F)F)C2)ccc1F (stereo partly drawn) [Example 67, (2R)-2-[({3-fluoro-6-[3-(trifluoromethyl)pyrrolidin-1-yl]pyridin-2-yl}methyl)amino]-3-methylbutan-1-ol] — 9.4-fold lower, 0.42 µM
- CC(C)[C@@H](NCc1nc(-c2ccc(C(F)(F)F)cc2)ccc1F)C(N)=O [Example 116, (R)-2-((3-fluoro-6-(4-(trifluoromethyl)phenyl)pyridin-2-yl)methylamino)-3-methylbutanamide] — higher, > 20 µM
- COc1ccc(-c2ccc(C(F)(F)F)nc2)nc1CN[C@@H](CO)C(C)C [Example 112, (2R)-2-({[5-methoxy-6′-(trifluoromethyl)-2,3′-bipyridin-6-yl]methyl}amino)-3-methylbutan-1-ol] — 3.9-fold higher, 15.3 µM
- CC(C)[C@H](CO)NCc1nc(-c2cccc3c2ccn3C)ccc1F [Example 63, (2R)-2-({[3-fluoro-6-(1-methyl-1H-indol-4-yl)pyridin-2-yl]methyl}amino)-3-methylbutan-1-ol] — 2.3-fold lower, 1.74 µM
- CC(C)[C@H](CO)NCc1nc(C2CCC(F)(F)CC2)ccc1F [Example 203, (2R)-2-({[6-(4,4-difluorocyclohexyl)-3-fluoropyridin-2-yl]methyl}amino)-3-methylbutan-1-ol] — 7.4-fold lower, 0.53 µM
- CC(C)[C@H](CO)NCc1nc(-c2cc(Cl)cc(Cl)c2)ccc1F [Example 21, (2R)-2-({[6-(3,5-dichlorophenyl)-3-fluoropyridin-2-yl]methyl}amino)-3-methylbutan-1-ol] — within 1.5-fold, 3.3 µM
- CC(=O)c1cccc(-c2ccc(F)c(CN[C@@H](CO)C(C)C)n2)c1 [Example 40, 1-{3-[5-fluoro-6-({[(2R)-1-hydroxy-3-methylbutan-2-yl]amino}methyl)pyridin-2-yl]phenyl}ethanone] — 2.8-fold lower, 1.4 µM
- C[C@H](O)CNCc1ccnc(-c2ccc(C(F)(F)F)cc2)n1 [Example 180, (2S)-1-[({2-[4-(trifluoromethyl)phenyl]pyrimidin-4-yl}methyl)amino]propan-2-ol] — higher, > 20 µM
- CCCN(CCC)C(=O)c1ccc(-c2ccc(F)c(CN[C@@H](CO)C(C)C)n2)cc1 [Example 277, 4-[5-fluoro-6-({[(2R)-1-hydroxy-3-methylbutan-2-yl]amino}methyl)pyridin-2-yl]-N,N-dipropylbenzamide] — 6.1-fold lower, 0.65 µM
- CC(C)[C@H](CO)NCc1nc(-c2cccc(S(=O)(=O)N3CCOCC3)c2)ccc1F [Example 54, (2R)-2-[({3-fluoro-6-[3-(morpholin-4-ylsulfonyl)phenyl]pyridin-2-yl}methyl)amino]-3-methylbutan-1-ol] — 5.2-fold lower, 0.76 µM
- CC(C)[C@H](CO)NCc1nc(-c2cnn(CC3OCCO3)c2)ccc1F [Example 250, (2R)-2-[({6-[1-(1,3-dioxolan-2-ylmethyl)-1H-pyrazol-4-yl]-3-fluoropyridin-2-yl}methyl)amino]-3-methylbutan-1-ol] — higher, > 20 µM
- O[C@@H]1CCCC[C@@H]1NCc1ccnc(-c2ccc(C(F)(F)F)cc2)n1 [Example 172, (1R,2S)-2-[({2-[4-(trifluoromethyl)phenyl]pyrimidin-4-yl}methyl)amino]cyclohexanol] — within 1.5-fold, 4.93 µM
- CC(O)C(C)NCc1nc(-c2ccc(C(F)(F)F)cc2)ccc1F (centres unmarked) [Example 86, 3-[({3-fluoro-6-[4-(trifluoromethyl)phenyl]pyridin-2-yl}methyl)amino]butan-2-ol] — 13-fold lower, 0.3 µM
- OC1(CNCc2ccnc(-c3ccc(C(F)(F)F)cc3)n2)CC1 [Example 176, 1-{[({2-[4-(trifluoromethyl)phenyl]pyrimidin-4-yl}methyl)amino]methyl}cyclopropanol] — higher, > 20 µM
- C[C@@H](O)[C@H](NCc1nc(-c2ccc(C(F)(F)F)nc2)ccc1F)C(N)=O [Example 120, (2S,3R)-2-((5-fluoro-6′-(trifluoromethyl)-2,3′-bipyridin-6-yl)methylamino)-3-hydroxybutanamide] — higher, > 20 µM
- C[C@H](O)[C@@H](CO)NCc1ccnc(-c2ccc(C(F)(F)F)cc2)n1 [Example 151, (2R,3S)-2-[({2-[4-(trifluoromethyl)phenyl]pyrimidin-4-yl}methyl)amino]butane-1,3-diol] — higher, > 20 µM
- CC(C)[C@H](CO)NCc1nc(-c2ccc(F)c(C#N)c2)ccc1F [Example 279, 2-fluoro-5-[5-fluoro-6-({[(2R)-1-hydroxy-3-methylbutan-2-yl]amino}methyl)pyridin-2-yl]benzonitrile] — 4.2-fold lower, 0.94 µM
- CC(C)[C@H](CO)NCc1cccc(C#Cc2ccc(F)cc2)n1 [Example 264, (2R)-2-[({6-[(4-fluorophenyl)ethynyl]pyridin-2-yl}methyl)amino]-3-methylbutan-1-ol] — 23-fold lower, 0.17 µM
- CC(C)[C@H](CO)NCc1nc(-c2ccc(C(F)(F)F)s2)ccc1F [Example 290] — 23-fold lower, 0.17 µM
- OC[C@H](NCc1ccnc(-c2ccc(C(F)(F)F)nc2)n1)C1CC1 [Example 188, (2R)-2-cyclopropyl-2-[({2-[6-(trifluoromethyl)pyridin-3-yl]pyrimidin-4-yl}methyl)amino]ethanol] — higher, > 20 µM
- CC(C)[C@H](CO)NCc1nc(-c2cc(F)cc(F)c2)ccc1F [Example 247, (2R)-2-({[6-(3,5-difluorophenyl)-3-fluoropyridin-2-yl]methyl}amino)-3-methylbutan-1-ol] — 49-fold lower, 0.08 µM
- CC(C)[C@H](CO)NCc1nc(-c2ccc(C(F)(F)F)cc2)ccc1F [Example 17, (2R)-2-[({3-fluoro-6-[4-(trifluoromethyl)phenyl]pyridin-2-yl}methyl)amino]-3-methylbutan-1-ol] — 20-fold lower, 0.2 µM
- CC(C)[C@H](CO)NCc1nc(C2CCN(C(=O)OC(C)(C)C)CC2)ccc1F [Example 205, tert-butyl 4-[5-fluoro-6-({[(2R)-1-hydroxy-3-methylbutan-2-yl]amino}methyl)pyridin-2-yl]piperidine-1-carboxylate] — 1.6-fold lower, 2.46 µM
- CC(C)(CO)NCc1cccc(-c2cccc([Si](C)(C)C)c2)n1 [Example 237, 2-methyl-2-[({6-[3-(trimethylsilyl)phenyl]pyridin-2-yl}methyl)amino]propan-1-ol] — within 1.5-fold, 5.75 µM
- CC(C)[C@H](CO)NCc1nc(C2CCOCC2)ccc1F [Example 204, (2R)-2-({[3-fluoro-6-(tetrahydro-2H-pyran-4-yl)pyridin-2-yl]methyl}amino)-3-methylbutan-1-ol] — higher, > 20 µM
- CC(C)[C@H](CO)NCc1nc(C2CCc3ccccc3C2)ccc1F (stereo partly drawn) [Example 217, (2R)-2-({[3-fluoro-6-(1,2,3,4-tetrahydronaphthalen-2-yl)pyridin-2-yl]methyl}amino)-3-methylbutan-1-ol] — 11-fold lower, 0.35 µM
- CC(C)[C@H](CO)NCc1nc(-c2cccc(OC(F)(F)F)c2)ccc1F [Example 18, (2R)-2-[({3-fluoro-6-[3-(trifluoromethoxy)phenyl]pyridin-2-yl}methyl)amino]-3-methylbutan-1-ol] — 3.5-fold lower, 1.12 µM
- C[C@@H](O)[C@@H](CO)NCc1ccnc(-c2ccc(C(F)(F)F)nc2)n1 [Example 191, (2R,3R)-2-[({2-[6-(trifluoromethyl)pyridin-3-yl]pyrimidin-4-yl}methyl)amino]butane-1,3-diol] — higher, > 20 µM
